According to ChEMBL document CHEMBL1201862, “PubChem BioAssay data set” (2004):
Activity calls are given as the source filed them.

What was measured:
Vero [1] = test: cells; type: functional, cell-based; conditions: Chlorocebus sabaeus
Vero [2] = test: cells; type: functional; conditions: Chlorocebus sabaeus
[3] = biological target: Heat shock protein HSP 90-alpha (Homo sapiens, UniProt P07900); type: functional, organism-based
[4] = Counterscreen for activators of the function of SWI/SNF related, matrix associated, actin dependent regulator of chromatin, subfamily a, member 2 (SMARCA2, BRM): Luminescence-based cell-based high throughput dose response assay to identify non-selective compounds using the VP16 reporter assay.; type: functional
[5] = biological target: SWI/SNF-related matrix-associated actin-dependent regulator of chromatin subfamily A member 2 (Homo sapiens, UniProt P51531); test: Luminescence-based cell-based high throughput dose response assay to identify activators of the function of SWI/SNF related, matrix associated, actin dependent regulator of chromatin, subfamily a, member 2 (SMARCA2, BRM).; type: functional
SWI/SNF-related matrix-associated actin-dependent regulator of chromatin subfamily A member 2, sequence (P51531 whole entry): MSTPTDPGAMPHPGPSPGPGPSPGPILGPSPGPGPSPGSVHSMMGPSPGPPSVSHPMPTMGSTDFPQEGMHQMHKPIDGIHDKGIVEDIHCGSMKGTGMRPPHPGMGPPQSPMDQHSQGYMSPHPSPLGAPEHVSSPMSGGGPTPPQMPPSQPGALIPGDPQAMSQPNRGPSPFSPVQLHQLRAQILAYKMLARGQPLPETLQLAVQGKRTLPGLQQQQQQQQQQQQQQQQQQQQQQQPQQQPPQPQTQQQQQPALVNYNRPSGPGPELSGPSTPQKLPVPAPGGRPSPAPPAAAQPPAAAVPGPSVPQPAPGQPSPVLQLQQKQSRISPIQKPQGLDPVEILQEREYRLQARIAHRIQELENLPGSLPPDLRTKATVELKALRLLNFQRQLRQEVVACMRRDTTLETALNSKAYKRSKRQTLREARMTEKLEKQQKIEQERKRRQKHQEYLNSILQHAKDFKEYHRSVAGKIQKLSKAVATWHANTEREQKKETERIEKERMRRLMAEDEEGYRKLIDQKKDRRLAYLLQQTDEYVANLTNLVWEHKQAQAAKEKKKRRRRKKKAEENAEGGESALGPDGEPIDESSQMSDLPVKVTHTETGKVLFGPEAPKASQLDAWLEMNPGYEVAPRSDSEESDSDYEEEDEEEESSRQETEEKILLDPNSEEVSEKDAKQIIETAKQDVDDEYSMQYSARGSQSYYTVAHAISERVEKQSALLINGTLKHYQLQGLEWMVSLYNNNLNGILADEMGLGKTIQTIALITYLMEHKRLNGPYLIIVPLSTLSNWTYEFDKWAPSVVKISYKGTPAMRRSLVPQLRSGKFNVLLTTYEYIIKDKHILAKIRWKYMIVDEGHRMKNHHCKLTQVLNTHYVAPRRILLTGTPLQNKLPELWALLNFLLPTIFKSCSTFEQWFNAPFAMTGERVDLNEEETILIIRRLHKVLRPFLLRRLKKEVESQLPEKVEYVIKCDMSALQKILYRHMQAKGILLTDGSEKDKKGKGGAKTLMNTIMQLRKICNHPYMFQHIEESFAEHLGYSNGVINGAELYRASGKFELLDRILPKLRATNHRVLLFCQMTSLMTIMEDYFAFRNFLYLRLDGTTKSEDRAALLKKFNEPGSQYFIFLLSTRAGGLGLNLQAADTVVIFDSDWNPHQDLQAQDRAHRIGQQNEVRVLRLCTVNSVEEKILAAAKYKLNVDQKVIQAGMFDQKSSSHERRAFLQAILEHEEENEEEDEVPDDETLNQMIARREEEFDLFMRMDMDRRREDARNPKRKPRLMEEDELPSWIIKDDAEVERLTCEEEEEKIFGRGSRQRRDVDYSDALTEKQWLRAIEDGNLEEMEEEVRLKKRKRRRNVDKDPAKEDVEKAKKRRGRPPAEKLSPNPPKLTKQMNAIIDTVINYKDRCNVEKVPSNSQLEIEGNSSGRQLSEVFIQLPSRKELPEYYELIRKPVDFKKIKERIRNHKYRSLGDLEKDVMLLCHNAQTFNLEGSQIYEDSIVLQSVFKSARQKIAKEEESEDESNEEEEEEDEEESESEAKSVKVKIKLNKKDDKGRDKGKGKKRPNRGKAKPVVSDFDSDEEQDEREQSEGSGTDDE

[6] = biological target: T1, Apoptotic protease-activating factor 1 (Homo sapiens, UniProt O14727); type: functional
T1 sequence (O14727 whole entry): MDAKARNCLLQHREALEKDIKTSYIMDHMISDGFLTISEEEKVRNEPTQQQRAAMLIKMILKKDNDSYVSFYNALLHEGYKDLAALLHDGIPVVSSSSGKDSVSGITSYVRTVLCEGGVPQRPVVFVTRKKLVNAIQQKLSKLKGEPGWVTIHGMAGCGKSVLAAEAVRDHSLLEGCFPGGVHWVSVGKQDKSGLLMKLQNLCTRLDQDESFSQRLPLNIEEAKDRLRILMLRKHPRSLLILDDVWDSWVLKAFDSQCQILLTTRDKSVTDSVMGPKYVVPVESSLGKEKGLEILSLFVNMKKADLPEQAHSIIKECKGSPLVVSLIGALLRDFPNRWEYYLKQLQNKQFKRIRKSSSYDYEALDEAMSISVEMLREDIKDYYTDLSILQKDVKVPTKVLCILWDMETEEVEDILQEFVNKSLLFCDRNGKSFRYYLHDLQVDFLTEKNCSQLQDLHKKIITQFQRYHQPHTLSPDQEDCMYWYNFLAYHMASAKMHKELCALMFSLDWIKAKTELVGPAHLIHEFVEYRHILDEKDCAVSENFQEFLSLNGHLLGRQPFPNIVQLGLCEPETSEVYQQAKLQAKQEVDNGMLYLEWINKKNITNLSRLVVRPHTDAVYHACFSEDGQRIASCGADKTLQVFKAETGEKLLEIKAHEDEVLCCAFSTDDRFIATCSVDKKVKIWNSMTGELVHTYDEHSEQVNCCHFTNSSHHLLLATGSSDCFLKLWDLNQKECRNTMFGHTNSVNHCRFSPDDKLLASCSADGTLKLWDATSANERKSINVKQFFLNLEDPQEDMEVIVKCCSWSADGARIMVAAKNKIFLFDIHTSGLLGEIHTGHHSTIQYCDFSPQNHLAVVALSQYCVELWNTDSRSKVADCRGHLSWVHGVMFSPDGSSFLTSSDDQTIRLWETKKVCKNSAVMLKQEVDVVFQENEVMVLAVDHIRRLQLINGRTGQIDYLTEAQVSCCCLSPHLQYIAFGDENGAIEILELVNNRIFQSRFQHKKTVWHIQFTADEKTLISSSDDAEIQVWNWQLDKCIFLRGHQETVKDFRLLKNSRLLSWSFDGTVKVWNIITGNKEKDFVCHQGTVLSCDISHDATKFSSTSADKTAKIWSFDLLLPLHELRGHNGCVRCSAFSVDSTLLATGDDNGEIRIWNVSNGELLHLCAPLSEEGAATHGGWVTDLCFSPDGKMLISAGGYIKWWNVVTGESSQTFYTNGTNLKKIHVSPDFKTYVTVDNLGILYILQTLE

[7] = biological target: T2, Ubiquitin-conjugating enzyme E2 N (Homo sapiens, UniProt P61088); type: functional;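 further: Dose-response confirmation in a TR-FRET assay detecting UBC13-driven polyubiquitin chain formation, inhibition measured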
T2 sequence (P61088 whole entry): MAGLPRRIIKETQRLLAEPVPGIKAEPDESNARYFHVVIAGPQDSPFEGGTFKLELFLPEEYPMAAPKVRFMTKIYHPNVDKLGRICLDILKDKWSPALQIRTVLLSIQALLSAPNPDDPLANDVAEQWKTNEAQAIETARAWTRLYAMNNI

[8] = biological target: Glucose-6-phosphate 1-dehydrogenase (Homo sapiens, UniProt P11413); test: human G6PD enzyme inhibitors, dose response, selectivity assay for P. falciparum G6PD inhibitor project, biochemical, fluorescence (AID 504792); type: functional
Glucose-6-phosphate 1-dehydrogenase, sequence (P11413 whole entry): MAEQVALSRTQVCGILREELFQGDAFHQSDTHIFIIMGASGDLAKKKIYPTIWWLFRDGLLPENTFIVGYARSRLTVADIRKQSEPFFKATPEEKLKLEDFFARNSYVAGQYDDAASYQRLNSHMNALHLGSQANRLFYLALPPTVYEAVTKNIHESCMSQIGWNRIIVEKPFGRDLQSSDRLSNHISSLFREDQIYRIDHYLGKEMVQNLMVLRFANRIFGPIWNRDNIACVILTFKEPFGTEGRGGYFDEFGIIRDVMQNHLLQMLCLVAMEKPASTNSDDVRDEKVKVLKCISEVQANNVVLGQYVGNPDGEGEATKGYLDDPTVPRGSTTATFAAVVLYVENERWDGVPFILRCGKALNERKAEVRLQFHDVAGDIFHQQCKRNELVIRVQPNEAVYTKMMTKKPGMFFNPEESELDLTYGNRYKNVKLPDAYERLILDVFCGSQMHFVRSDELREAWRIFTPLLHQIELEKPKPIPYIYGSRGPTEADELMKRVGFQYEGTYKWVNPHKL

[9] = human group III sPLA2 inhibitors, dose response, biochemical, QFRET, IC50 (AID 743457);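 further: green fluorescence rise as the enzyme cleaves BODIPY PC-A2 in liposomes; potency for inhibition of the enzyme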
[10] = biological target: T3, Heat shock factor protein 1 (Mus musculus, UniProt P38532); test: inhibition of MG132-induced HSE-luciferase signal, confirmation, cell-based, NIH3T3, luminescence, dose retest (AID 2382); type: functional;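 further: NIH3T3 fibroblasts with HSF1-driven luciferase reporter stressed by proteasome inhibitor MG132; luminescence from HSF1-driven luciferase expression after 8 hours of MG132 stress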
T3 sequence (P38532 whole entry): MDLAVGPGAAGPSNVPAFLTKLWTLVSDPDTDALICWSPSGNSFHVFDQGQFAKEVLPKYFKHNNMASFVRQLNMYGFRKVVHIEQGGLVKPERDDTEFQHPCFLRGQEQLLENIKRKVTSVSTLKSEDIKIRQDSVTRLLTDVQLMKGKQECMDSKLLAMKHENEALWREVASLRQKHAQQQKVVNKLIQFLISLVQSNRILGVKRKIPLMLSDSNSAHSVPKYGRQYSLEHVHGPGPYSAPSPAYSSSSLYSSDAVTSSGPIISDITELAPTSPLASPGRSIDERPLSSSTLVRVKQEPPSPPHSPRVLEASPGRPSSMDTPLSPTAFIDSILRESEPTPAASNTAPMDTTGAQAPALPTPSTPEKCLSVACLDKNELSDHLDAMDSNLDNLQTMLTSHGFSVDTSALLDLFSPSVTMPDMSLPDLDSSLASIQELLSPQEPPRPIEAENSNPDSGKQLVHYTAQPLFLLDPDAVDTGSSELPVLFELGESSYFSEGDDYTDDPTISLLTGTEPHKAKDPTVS

Cytochrome P450 2C9 = Cytochrome P450 2C9 (Homo sapiens, UniProt P11712)
Cytochrome P450 2C9, sequence (P11712 whole entry): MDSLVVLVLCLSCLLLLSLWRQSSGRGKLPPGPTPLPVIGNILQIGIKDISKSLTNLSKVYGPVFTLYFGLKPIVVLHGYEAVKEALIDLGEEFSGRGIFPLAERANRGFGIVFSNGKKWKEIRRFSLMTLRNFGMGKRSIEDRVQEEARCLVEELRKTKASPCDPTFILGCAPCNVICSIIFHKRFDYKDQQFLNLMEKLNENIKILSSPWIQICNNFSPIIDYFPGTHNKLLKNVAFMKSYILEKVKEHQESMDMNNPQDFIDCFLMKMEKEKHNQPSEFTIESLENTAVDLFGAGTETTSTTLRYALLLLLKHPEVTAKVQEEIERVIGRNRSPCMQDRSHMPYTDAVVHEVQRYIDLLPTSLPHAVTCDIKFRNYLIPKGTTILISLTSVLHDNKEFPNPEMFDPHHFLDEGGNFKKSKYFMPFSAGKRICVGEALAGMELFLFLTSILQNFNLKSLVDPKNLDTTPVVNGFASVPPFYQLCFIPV

[11] = microbe, parasite or virus in culture; type: functional; conditions: Mycobacterium tuberculosis
[12] = biological target: T4, Replicative DNA helicase DnaB (Mycobacterium tuberculosis, UniProt P9WMR3); test: DnaB intein splicing inhibitors, dose response, biochemical, cell-free fluorescence (AID 449749); type: functional
T4 sequence (P9WMR3 whole entry): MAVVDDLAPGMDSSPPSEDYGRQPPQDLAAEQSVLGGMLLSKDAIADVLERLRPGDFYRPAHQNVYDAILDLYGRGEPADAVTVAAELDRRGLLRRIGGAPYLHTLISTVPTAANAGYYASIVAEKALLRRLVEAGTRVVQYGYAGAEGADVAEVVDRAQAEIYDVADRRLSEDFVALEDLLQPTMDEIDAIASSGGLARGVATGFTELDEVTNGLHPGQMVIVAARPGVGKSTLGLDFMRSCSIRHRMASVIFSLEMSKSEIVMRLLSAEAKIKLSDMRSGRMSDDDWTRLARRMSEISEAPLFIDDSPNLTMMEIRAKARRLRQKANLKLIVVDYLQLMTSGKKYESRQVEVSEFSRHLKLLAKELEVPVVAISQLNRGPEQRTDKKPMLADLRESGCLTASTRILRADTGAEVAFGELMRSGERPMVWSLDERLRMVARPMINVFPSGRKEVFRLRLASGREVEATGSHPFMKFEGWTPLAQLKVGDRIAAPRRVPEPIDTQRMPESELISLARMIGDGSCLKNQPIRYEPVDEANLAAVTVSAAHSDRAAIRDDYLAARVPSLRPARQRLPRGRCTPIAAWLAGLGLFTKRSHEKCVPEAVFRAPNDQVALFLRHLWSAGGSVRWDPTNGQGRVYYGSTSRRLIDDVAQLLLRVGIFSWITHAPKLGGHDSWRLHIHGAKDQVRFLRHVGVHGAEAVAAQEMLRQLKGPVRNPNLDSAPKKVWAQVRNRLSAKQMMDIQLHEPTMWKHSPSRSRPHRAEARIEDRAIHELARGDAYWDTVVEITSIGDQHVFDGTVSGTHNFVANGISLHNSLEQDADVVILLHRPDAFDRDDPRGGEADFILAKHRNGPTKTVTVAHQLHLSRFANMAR

[13] = biological target: T5, Corticotropin-releasing factor receptor 2/Corticotropin-releasing factor-binding protein (Homo sapiens, UniProt P24387+Q13324); test: Dose Response confirmation of uHTS hits for small molecule antagonists of the CRF-binding protein and CRF-R2 receptor complex.; type: functional; conditions: read-out: IC50_Mean
T5 sequence (Q13324 whole entry): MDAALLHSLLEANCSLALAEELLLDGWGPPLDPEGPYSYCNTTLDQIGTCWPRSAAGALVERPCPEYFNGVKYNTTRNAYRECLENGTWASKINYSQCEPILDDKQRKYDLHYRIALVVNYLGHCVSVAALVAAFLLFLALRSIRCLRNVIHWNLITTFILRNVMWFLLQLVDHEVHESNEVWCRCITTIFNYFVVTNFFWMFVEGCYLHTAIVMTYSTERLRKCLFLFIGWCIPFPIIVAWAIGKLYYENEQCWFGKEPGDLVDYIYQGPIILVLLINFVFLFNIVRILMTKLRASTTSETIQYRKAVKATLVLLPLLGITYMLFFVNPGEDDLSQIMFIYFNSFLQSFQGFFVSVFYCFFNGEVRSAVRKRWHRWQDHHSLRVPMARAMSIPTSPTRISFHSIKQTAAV
T5 sequence (P24387 whole entry): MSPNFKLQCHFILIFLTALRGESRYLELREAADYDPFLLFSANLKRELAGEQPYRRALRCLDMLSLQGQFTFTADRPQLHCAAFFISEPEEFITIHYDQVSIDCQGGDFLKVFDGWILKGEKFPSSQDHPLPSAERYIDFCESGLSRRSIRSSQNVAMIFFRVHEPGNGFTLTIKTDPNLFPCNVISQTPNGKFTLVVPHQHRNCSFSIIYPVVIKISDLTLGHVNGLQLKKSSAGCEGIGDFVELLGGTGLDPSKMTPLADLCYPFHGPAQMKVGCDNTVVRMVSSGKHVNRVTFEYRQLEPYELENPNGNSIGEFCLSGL

Protein RecA = biological target: T6, Protein RecA (Mycobacterium tuberculosis, UniProt P9WHJ3); test: Fluorescence Cell-Free Homogeneous Dose Retest to Identify Inhibitors of RecA-Intein Splicing Activity. [Related pubchem assays (depositor defined):AID2097, AID2223, AID489010, AID492950]; type: functional
T6 sequence (P9WHJ3 whole entry): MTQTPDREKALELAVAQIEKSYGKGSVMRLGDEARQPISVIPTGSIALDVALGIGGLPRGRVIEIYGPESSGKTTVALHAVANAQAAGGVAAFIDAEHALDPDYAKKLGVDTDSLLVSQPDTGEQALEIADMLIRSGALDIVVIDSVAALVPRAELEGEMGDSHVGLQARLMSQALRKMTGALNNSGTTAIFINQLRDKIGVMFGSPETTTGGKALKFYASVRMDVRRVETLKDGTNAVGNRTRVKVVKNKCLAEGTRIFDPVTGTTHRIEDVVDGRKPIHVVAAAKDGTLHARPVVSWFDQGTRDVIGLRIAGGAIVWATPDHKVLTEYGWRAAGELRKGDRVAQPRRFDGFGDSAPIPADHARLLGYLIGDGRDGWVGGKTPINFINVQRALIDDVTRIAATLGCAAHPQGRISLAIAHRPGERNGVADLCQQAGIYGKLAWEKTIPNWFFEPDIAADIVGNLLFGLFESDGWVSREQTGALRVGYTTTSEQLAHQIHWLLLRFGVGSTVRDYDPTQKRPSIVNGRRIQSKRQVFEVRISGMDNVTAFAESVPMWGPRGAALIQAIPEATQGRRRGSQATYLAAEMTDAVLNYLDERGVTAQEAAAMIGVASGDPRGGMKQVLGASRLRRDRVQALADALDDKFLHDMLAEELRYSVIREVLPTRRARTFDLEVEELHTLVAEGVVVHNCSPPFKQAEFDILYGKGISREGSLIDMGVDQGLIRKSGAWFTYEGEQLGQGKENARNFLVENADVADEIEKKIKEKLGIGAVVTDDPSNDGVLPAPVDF

HEK293 [14] = test: cells; conditions: Homo sapiens
HEK293 [15] = test: cells; conditions: Homo sapiens; remark: listed apart in the source
[16] = biological target: T5, Corticotropin-releasing factor receptor 2/Corticotropin-releasing factor-binding protein; test: activators of CRF receptor 2 with binding protein – uHTS hits, confirmation (AID 602473); type: functional; conditions: read-out: EC50_Mean

## O=C1CCCCC1Nc1ccc2ccccc2c1 (stereo unspecified)
Vero [1]
  IC50: > 12.5 µM (active)

## CC(C)N1CCN(c2ccc(OC[C@H]3CO[C@](Cn4cncn4)(c4ccc(Cl)cc4Cl)O3)cc2)CC1 [TERCONAZOLE]
Vero [2]
  CC50: 22.1 µM (active)
[3]
  AC50: 1.41 µM (active)

## N#C/C(=C/c1cccs1)c1nc2ccccc2[nH]1
[4]
  EC50: > 91.1 µM (inactive)
[5]
  EC50: > 91.1 µM (inactive)

## COc1ccc(C(CNC(=O)COc2c(C)cc(C)cc2C)N2CCOCC2)cc1 (stereo unspecified)
[6]
  IC50: > 100 µM (inactive)
[7]
  IC50: > 20 µM (inactive)

## Nc1c(C(=O)Nc2ccc(F)cc2)sc(=S)n1-c1ccccc1F
[8]
  IC50: > 80 µM (inactive)

## O=C(CCCc1ccccc1)NCc1ccccc1
[4]
  EC50: > 91.3 µM (inactive)
[5]
  EC50: > 91.3 µM (inactive)

## Cc1ccc2nc(NNC(=O)c3ccc4c(c3)OCCO4)sc2c1
[9]
  IC50: > 122 µM (inactive)

## O=C(Nc1nc(-c2cccc(Br)c2)cs1)Oc1ccccc1
[4]
  EC50: > 91.2 µM (inactive)
[5]
  EC50: > 91.2 µM (inactive)

## O=C(Nc1nnc(S(=O)(=O)N2CCCCCC2)s1)c1cccc(Br)c1
[10]
  EC50: > 195 µM (not active)
[8]
  IC50: 78.9 µM (inactive)

## Cc1oc2c(c1C(=O)O)C(=O)c1ccccc1C2=O
[6]
  IC50: 11.4 µM (active)

## O=C(Oc1ccc2ccccc2c1Br)N1CCCCCC1
Vero [2]
  CC50: > 25 µM (active)
Cytochrome P450 2C9
  AC50: 25.1 µM (inconclusive)
Vero [1]
  IC50: 4.26 µM (active)

## COC(=O)CN1C(c2ccc(Cl)cc2)=Nc2ccc(Cl)cc2C1c1ccccc1 (stereo unspecified)
[11]
  CC50: > 40 µM (active)
[12]
  AC50: 4.24 µM (active)
[13]
  IC50: > 47.1 µM (inactive)
Protein RecA
  EC50: 55.9 µM (inconclusive)
HEK293 [14]
  EC50: > 59.6 µM (inactive)
HEK293 [15]
  EC50: > 59.6 µM (inactive)
[16]
  EC50: > 53 µM (inactive)
